Experimental data published in patent US11185074B2, “Microbiocidal quinoline (thio)carboxamide derivatives” (SYNGENTA PARTICIPATIONS AG, priority 2017, dated 2021).
Like-named read-outs stand apart in the source and are kept apart here.

Assays:
[1] = system: Botryotinia fuckeliana (Botrytis cinerea); experiment: Botryotinia fuckeliana (Botrytis cinerea) / liquid culture (gray mould); type: cell-based; conditions: 72 h, read-out: control of Botryotinia fuckeliana
[2] = system: Glomerella lagenarium (Colletotrichum lagenarium); experiment: Glomerella lagenarium (Colletotrichum lagenarium) / liquid culture (anthracnose); type: cell-based; conditions: Colletotrichum orbiculare, read-out: control of Glomerella lagenarium
[3] = system: Fusarium culmorum; experiment: microbe, parasite or virus in culture; type: cell-based; conditions: read-out: control of Fusarium culmorum
[4] = system: Monographella nivalis (Microdochium nivale); experiment: Monographella nivalis (Microdochium nivale) / liquid culture (foot rot cereals); type: cell-based; conditions: 96 h, inhibition of growth photometrically 4-5 days after application, compared to untreated control
[5] = system: Magnaporthe grisea (Pyricularia oryzae); experiment: microbe, parasite or virus in culture; type: cell-based; conditions: 72 h, read-out: control of Magnaporthe grisea
[6] = system: Fusarium culmorum; experiment: whole plant or invertebrate; type: in vivo, Fusarium culmorum on wheat spikelets cv. Monsun; conditions: in Triticum aestivum, read-out: control of Fusarium culmorum
[7] = system: Sclerotinia sclerotiorum; experiment: Sclerotinia sclerotiorum / liquid culture (cottony rot); conditions: 72 h, read-out: control of Sclerotinia sclerotiorum
Protocol: Sclerotinia sclerotiorum/Liquid Culture (Cottony Rot)
Mycelia fragments of a newly grown liquid culture of the fungus are directly mixed into nutrient broth (Vogels broth). After placing a (DMSO) solution of test compound into a microtiter plate (96-well format) the nutrient broth containing the fungal material is added. The test plates are incubated at 24° C. and the inhibition of growth is determined photometrically 3-4 days after application.

[8] = 20 ppm, liquid culture, inhibition of growth photometrically 3-4 days after application, compared to untreated control

Row | Compound | inhibition of growth at 20 ppm [1, 8] [%] | inhibition of growth at 20 ppm [2, 8] [%] | inhibition of growth at 20 ppm [3] [%] | melting point [°C] | inhibition of growth at 20 ppm [4] [%] | inhibition of growth at 20 ppm [5] [%] | pest or weed control at 200 ppm [6] [%] | inhibition of growth at 20 ppm [1] [%] | inhibition of growth at 20 ppm [2] [%] | inhibition of growth at 20 ppm [7] [%]
1 | O=C(NC(CC1CC1)CC1CC1)c1cnc2ccccc2c1 [E-29] | ≥ 80 | ≥ 80 | ≥ 80 | 123 to 125 |  |  |  |  |  | 
2 | CC(C)=C(C)CC(C)(CC(C)C)NC(=O)c1cnc2c(F)cccc2c1 (stereo not shown) [E-15] | ≥ 80 | ≥ 80 | ≥ 80 |  | ≥ 80 | ≥ 80 |  |  |  | 
3 | CC(Cc1ccccc1)C(C)(C)NC(=O)c1cnc2c(F)cccc2c1 (stereo not shown) [E-16] | ≥ 80 | ≥ 80 | ≥ 80 |  | ≥ 80 |  | ≥ 80 |  |  | 
4 | CC(CC1CC=CCC1)(CC(F)(F)F)NC(=O)c1cnc2ccccc2c1 (stereo not shown) [E-55] | ≥ 80 | ≥ 80 | ≥ 80 | 90 to 95 | ≥ 80 | ≥ 80 | ≥ 80 |  |  | 
5 | CC(C)=CCC(C)(CC(C)C)NC(=O)c1cnc2ccccc2c1 (stereo not shown) [E-13] | ≥ 80 | ≥ 80 | ≥ 80 |  | ≥ 80 | ≥ 80 |  |  |  | 
6 | C/C(=C\c1ccccc1)CC(C)(C)NC(=O)c1cc2cccc(F)c2nc1C |  |  |  | 108 to 110 |  |  |  |  |  | 
7 | CCC(CC)CC(C)(CC(F)(F)F)NC(=O)c1cnc2ccccc2c1 (stereo not shown) [E-43] | ≥ 80 | ≥ 80 | ≥ 80 | 93 to 95 |  | ≥ 80 | ≥ 80 |  |  | 
8 | CCCCCC(C)(C)NC(=O)c1cnc2c(F)cccc2c1 [E-1] |  |  | ≥ 80 |  |  |  |  | ≥ 80 | ≥ 80 | 
9 | Cc1cccc2cc(C(=O)NC(C)CC3CC=CCC3)cnc12 (stereo not shown) [E-50] | ≥ 80 | ≥ 80 | ≥ 80 |  | ≥ 80 |  | ≥ 80 |  |  | 
10 | CC(C)CC(C)(CC(C)C)NC(=O)c1cnc2c(F)cccc2c1 [E-4] | ≥ 80 | ≥ 80 | ≥ 80 | 139 to 142 |  | ≥ 80 |  |  |  | ≥ 80
11 | C=CCC(C)(C)NC(=O)c1cnc2c(F)c(F)ccc2c1 [E-36] | ≥ 80 | ≥ 80 | ≥ 80 | 116 to 119 |  |  |  |  |  | 
12 | C/C(=C/c1ccccc1)CC(C)(C)NC(=O)c1cnc2c(F)cccc2c1C [E-28] | ≥ 80 |  | ≥ 80 | 96 to 98 |  |  |  |  |  | 
13 | CC(CC1CC=CCC1)NC(=O)c1cnc2ccccc2c1 (stereo not shown) [E-49] | ≥ 80 | ≥ 80 | ≥ 80 |  |  |  |  |  |  | 
14 | C=C(C)CC(COC)(CC(=C)C)NC(=O)c1cnc2c(F)cccc2c1 [E-20] | ≥ 80 | ≥ 80 | ≥ 80 | 97 to 100 | ≥ 80 | ≥ 80 | ≥ 80 |  |  | 
15 | CCCC(C)CC(C)NC(=O)c1cnc2c(F)cccc2c1 (stereo not shown) [E-51] | ≥ 80 | ≥ 80 | ≥ 80 |  | ≥ 80 |  |  |  |  | 
16 | CC(C)=C(F)CC(C)(CC(C)C)NC(=O)c1cnc2ccccc2c1 (stereo not shown) [E-19] | ≥ 80 | ≥ 80 | ≥ 80 | 95 to 97 |  | ≥ 80 | ≥ 80 |  |  | 
17 | CCC(CC)CC(C)NC(=O)c1cnc2c(F)cccc2c1 (stereo not shown) [E-40] | ≥ 80 | ≥ 80 | ≥ 80 |  | ≥ 80 |  |  |  |  | 
18 | CC(CC1CC1)(CC1CC1)NC(=O)c1cnc2ccccc2c1 [E-26] | ≥ 80 | ≥ 80 | ≥ 80 | 92 to 94 | ≥ 80 |  | ≥ 80 |  |  | 
19 | CCC(CC)CC(C)NC(=O)c1cnc2ccccc2c1 (stereo not shown) [E-38] | ≥ 80 | ≥ 80 | ≥ 80 |  | ≥ 80 |  |  |  |  | 

Row | Compound | inhibition of growth at 20 ppm [1, 8] [%] | inhibition of growth at 20 ppm [2, 8] [%] | inhibition of growth at 20 ppm [3] [%] | melting point [°C] | inhibition of growth at 20 ppm [4] [%] | inhibition of growth at 20 ppm [5] [%] | pest or weed control at 200 ppm [6] [%] | inhibition of growth at 20 ppm [1] [%] | inhibition of growth at 20 ppm [2] [%] | inhibition of growth at 20 ppm [7] [%]
20 | CC(C)CC(C)(C#N)NC(=O)c1cnc2c(F)cccc2c1 (stereo not shown) [E-35] |  |  | ≥ 80 | 167 to 171 |  |  |  |  |  | 
21 | CC(C)CC=CCC(C)(C)NC(=O)c1cnc2c(F)c(F)ccc2c1 [E-33] | ≥ 80 | ≥ 80 | ≥ 80 |  | ≥ 80 |  |  |  |  | 
22 | CCC(CC)CC(C)(CC(F)(F)F)NC(=O)c1cnc2c(C)cccc2c1 (stereo not shown) [E-44] | ≥ 80 | ≥ 80 | ≥ 80 |  | ≥ 80 | ≥ 80 |  |  |  | 
23 | CC1(CC(C)(CC(F)(F)F)NC(=O)c2cnc3c(F)cccc3c2)CC1 (stereo not shown) [E-10, 8-fluoro-N-[3,3,3-trifluoro-1-methyl-1-[(1-methylcyclopropyl)methyl]propyl]quinoline-3-carboxamide] | ≥ 80 | ≥ 80 | ≥ 80 | 126 to 128 | ≥ 80 | ≥ 80 |  |  |  | 
24 | CCCC(C)CC(C)(CC(F)(F)F)NC(=O)c1cnc2c(F)cccc2c1 (stereo not shown) [E-52] | ≥ 80 | ≥ 80 | ≥ 80 |  | ≥ 80 | ≥ 80 | ≥ 80 |  |  | 
25 | CC(C)CC(C)CC(C)(C)NC(=O)c1cnc2c(F)cccc2c1 (stereo not shown) [E-22] | ≥ 80 | ≥ 80 | ≥ 80 |  | ≥ 80 | ≥ 80 |  |  |  | 
26 | CC(CC1CCCCC1)(CC(F)(F)F)NC(=O)c1cnc2ccccc2c1 (stereo not shown) [E-60] | ≥ 80 | ≥ 80 | ≥ 80 | 70 to 87 | ≥ 80 | ≥ 80 | ≥ 80 |  |  | 
27 | CC(C)(NC(=O)c1cnc2c(F)cccc2c1)C1CCCCC1 [E-7] | ≥ 80 | ≥ 80 | ≥ 80 |  | ≥ 80 |  |  |  |  | 
28 | CCC(CC)CC(C)NC(=O)c1cnc2c(C)cccc2c1 (stereo not shown) [E-39] | ≥ 80 | ≥ 80 | ≥ 80 |  |  |  |  |  |  | 
29 | Cc1cccc2cc(C(=O)NC(C)(CC3CC=CCC3)CC(F)(F)F)cnc12 (stereo not shown) [E-53] | ≥ 80 | ≥ 80 | ≥ 80 | 112 to 114 | ≥ 80 | ≥ 80 |  |  |  | ≥ 80
30 | CC(C)(C/C=C/c1ccccc1)NC(=O)c1cnc2c(F)c(F)ccc2c1 [E-34] | ≥ 80 |  | ≥ 80 |  | ≥ 80 |  |  |  |  | 
31 | C/C(=C/c1ccccc1)CC(C)(C)NC(=O)c1cnc2c(F)cccc2c1 [E-31] | ≥ 80 |  |  | 127 to 129 | ≥ 80 |  |  |  |  | 
32 | C=C(C)CC(C)(CC(C)C)NC(=O)c1cnc2ccccc2c1 (stereo not shown) [E-12] | ≥ 80 | ≥ 80 | ≥ 80 | 89 to 91 | ≥ 80 | ≥ 80 | ≥ 80 |  |  | 
33 | CC(C)=CCC(C)(CC(C)C)NC(=O)c1cnc2c(F)cccc2c1 (stereo not shown) [E-11] | ≥ 80 | ≥ 80 | ≥ 80 | 94 to 96 | ≥ 80 | ≥ 80 |  |  |  | 
34 | COc1ccc(CCC(C)(C#N)NC(=O)c2cnc3c(F)cccc3c2)cc1 (stereo not shown) [E-30] |  | ≥ 80 | ≥ 80 | 175 to 176 |  |  |  |  |  | 
35 | CC(CC1CC1)(CC1CC1)NC(=O)c1cnc2c(F)cccc2c1 [E-17] | ≥ 80 | ≥ 80 | ≥ 80 | 96 to 98 | ≥ 80 | ≥ 80 | ≥ 80 |  |  | 
36 | O=C(NC(CC1CC1)CC1CC1)c1cnc2c(F)cccc2c1 [E-24] | ≥ 80 | ≥ 80 | ≥ 80 | 141 to 143 |  | ≥ 80 |  |  |  | 
37 | CCCC(C)CC(C)NC(=O)c1cnc2ccccc2c1 (stereo not shown) [E-41] | ≥ 80 | ≥ 80 | ≥ 80 |  |  |  |  |  |  | 
38 | CC(C)CC(C)(CCc1ccccc1)NC(=O)c1cnc2c(F)cccc2c1 (stereo not shown) [E-8] | ≥ 80 | ≥ 80 | ≥ 80 | 170 to 175 | ≥ 80 | ≥ 80 |  |  |  | ≥ 80
